Each compound was assayed against human (hAC) acid ceramidase (Homo sapiens (Human), UniProt Q13510) (assay: fluorescent-based in vitro assay on human acid ceramidase). Settings: hAC-enriched lysosomal lysate from HEK293 cells; fluorogenic probe 5 μM; pH 4.5.
Format: biochemical
Text: To evaluate the potency of the compounds towards acid ceramidase, a fluorescence-based in vitro assay previously described in literature (Bedia C et al., ChemBioChem, 2007, 8, 642-648) was implemented and optimized. This assay is based on a “fluorogenic probe” containing a coumarin group and a sphingoid base moiety (see figure below), which is not fluorescent in itself, but upon enzymatic cleavage by acid ceramidase followed by a chemical transformation liberates the fluorescent molecule umbelliferone (7-hydroxychromen-2-one). By quantifying the generation of umbelliferone using a fluorescence plate-reader, the level of enzymatic activity can be measured, whereby IC50 values of compounds that inhibit this activity can be generated.
Lysosomal lysate, enriched with acid ceramidase, was prepared from a cell line stably expressing human acid ceramidase. In the assay, the fluorogenic probe (or substrate) serves as a ceramide-analogue, which is recognized and hydrolyzed at the amide bond by acid ceramidase from the enriched lysate to yield the fatty acid and coumarinic aminodiol. By treating the solution with sodium periodate (NaIO4), the coumarinic aminodiol is subsequently oxidized into an aldehyde intermediate, which undergoes a β-elimination reaction to release the strongly fluorescent umbelliferone.
A lysosomal human acid ceramidase protein preparation was obtained from HEK293 cells stably expressing acid ceramidase suspended in 20 mM Tris HCl (pH 7.5) with 0.32 M sucrose. The cell solution was sonicated and centrifuged at 800×g for 15 min at 4° C. Supernatants were then centrifuged at 12,000×g for 30 min at 4° C. Pellets were re-suspended in PBS pH 7.4 and subjected to two freeze-thaw cycles at −80° C. The suspension was finally centrifuged at 105,000×g for 1 hour at 4° C. and protein concentration was measured in the supernatant with bicinchinonic-acid based protein assay. This human acid ceramidase-enriched preparation allowed us to further optimize the enzymatic assay and to use smaller amounts of lysate (2 μg/well) and substrate (5 μM).
The assay was performed in Optiplate 96-wells black plates, with each reaction well containing a mixture of 25 mM sodium acetate buffer pH 4.5 and a fixed amount of protein (2 μg) in a volume of 85 μL. After 30 mins of pre-incubation with test compounds (diluted 20× from DMSO stock solutions at different concentrations), the fluorogenic probe was added (diluted 20× from EtOH stock solution, final concentration 5 μM). After incubation for 3 hours at 37° C., the reactions were stopped with 50 μL of methanol and 100 μL of a 2.5 mg/mL NalO4 fresh solution in 100 mM Glycine/NaOH pH 10.6. The plate was incubated at 37° C. for 2 hours in the dark and fluorescence intensities were measured at excitation/emission wavelengths of 360/446 nm. Negative control samples consisted of the same incubation mixture in the absence of protein extracts. The IC50 values or percent of inhibition, at the indicated concentration, of selected compounds described in the invention are reported in Table 2.

Sequence of human (hAC) acid ceramidase (Q13510 22-142): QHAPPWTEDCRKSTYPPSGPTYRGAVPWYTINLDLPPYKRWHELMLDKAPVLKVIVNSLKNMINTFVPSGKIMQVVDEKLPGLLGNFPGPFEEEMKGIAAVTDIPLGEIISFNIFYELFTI
Sequence of human (hAC) acid ceramidase (Q13510 143-395): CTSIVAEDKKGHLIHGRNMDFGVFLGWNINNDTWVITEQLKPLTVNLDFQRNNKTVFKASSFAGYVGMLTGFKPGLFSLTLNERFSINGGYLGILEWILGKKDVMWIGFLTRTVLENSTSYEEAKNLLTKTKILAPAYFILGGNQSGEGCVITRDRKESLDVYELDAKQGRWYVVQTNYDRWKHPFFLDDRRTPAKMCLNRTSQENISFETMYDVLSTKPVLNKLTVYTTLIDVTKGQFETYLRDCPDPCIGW

| Compound | IC50 |
| --- | --- |
| O=C(NCCCCc1ccc2ccccc2c1)n1c(=O)oc2ccccc21 [Example 52, N-[4-(2-Naphthyl)butyl]-2-oxo-1,3-benzoxazole-3-carboxamide] | 57 nM |
| Cc1ccc2oc(=O)n(C(=O)NCCCCc3ccccc3)c2c1 [Example 8, 5-Methyl-2-oxo-N-(4-phenylbutyl)-1,3-benzoxazole-3-carboxamide] | 117 ± 26 nM |
| O=C(NCCCCc1ccc(F)cc1)n1c(=O)oc2ccccc21 [Example 46, N-[4-(4-Fluorophenyl)butyl]-2-oxo-1,3-benzoxazole-3-carboxamide] | 75 nM |
| O=C(NCCCCc1ccccc1)n1c(=O)oc2ccc(F)cc21 [Example 2, 5-Fluoro-2-oxo-N-(4-phenylbutyl)-1,3-benzoxazole-3-carboxamide] | 56 ± 12 nM |
| O=C(NCCCCc1cccs1)n1c(=O)oc2ccccc21 [Example 44, 2-Oxo-N-[4-(2-thienyl)butyl]-1,3-benzoxazole-3-carboxamide] | 99 ± 58 nM |
| COc1ccc(-c2ccc3oc(=O)n(C(=O)NCCCCc4ccccc4)c3c2)cc1 [Example 21, 5-(4-Methoxyphenyl)-2-oxo-N-(4-phenylbutyl)-1,3-benzoxazole-3-carboxamide] | 68 nM |
| COc1ccc(-c2ccc3c(c2)oc(=O)n3C(=O)NCCCCc2ccccc2)cc1 [Example 24, 6-(4-Methoxyphenyl)-2-oxo-N-(4-phenylbutyl)-1,3-benzoxazole-3-carboxamide] | 67 ± 5 nM |
| O=C(NCCCCC1CCCCC1)n1c(=O)oc2ccccc21 [Example 39, N-(4-Cyclohexylbutyl)-2-oxo-1,3-benzoxazole-3-carboxamide] | 62 ± 44 nM |
| CCC[C@H]1CC[C@H](CNC(=O)n2c(=O)oc3ccccc32)CC1 [Example 40, 2-Oxo-N-[(4-propylcyclohexyl)methyl]-1,3-benzoxazole-3-carboxamide] | 135 ± 56 nM |
| O=C(NCCCCc1ccccc1)n1c(=O)oc2cc(Cl)ccc21 [Example 5, 6-Chloro-2-oxo-N-(4-phenylbutyl)-1,3-benzoxazole-3-carboxamide] | 33 ± 4 nM |
| O=C(NCCCc1cccc(F)c1)n1c(=O)oc2ccccc21 [Example 50, N-[3-(3-Fluorophenyl)propyl]-2-oxo-1,3-benzoxazole-3-carboxamide] | 49 nM |
| O=C(NCCCCc1ccccc1)n1c(=O)oc2c(-c3ccccc3)cccc21 [Example 27, 2-Oxo-7-phenyl-N-(4-phenylbutyl)-1,3-benzoxazole-3-carboxamide] | 91 ± 10 nM |
| O=C(NCCCCc1ccccc1)n1c(=O)oc2ccccc21 [Example 1, 2-Oxo-N-(4-phenylbutyl)-1,3-benzoxazole-3-carboxamide] | 64 ± 7 nM |
| O=C(NCCCc1ccccc1)n1c(=O)oc2ccccc21 [Example 43, 2-Oxo-N-(3-phenylpropyl)-1,3-benzoxazole-3-carboxamide] | 55 ± 6 nM |
| O=C(NCCCCCc1ccccc1)n1c(=O)oc2ccccc21 [Example 57, 2-Oxo-N-(5-phenylpentyl)-1,3-benzoxazole-3-carboxamide] | 54 ± 12 nM |
| O=C(NCCCCc1ccccc1)n1c(=O)oc2cc(-c3ccccc3)ccc21 [Example 23, 2-Oxo-6-phenyl-N-(4-phenylbutyl)-1,3-benzoxazole-3-carboxamide] | 84 ± 35 nM |
| COc1ccc(CCCCNC(=O)n2c(=O)oc3ccccc32)cc1 [Example 45, N-[4-(4-Methoxyphenyl)butyl]-2-oxo-1,3-benzoxazole-3-carboxamide] | 63 ± 22 nM |
| O=C(NCCCCc1ccccc1)n1c(=O)oc2ccc(-c3ccc(F)cc3)cc21 [Example 22, 5-(4-Fluorophenyl)-2-oxo-N-(4-phenylbutyl)-1,3-benzoxazole-3-carboxamide] | 56 ± 14 nM |
| O=C(NCCCCc1ccccc1)n1c(=O)oc2cc(O)ccc21 [Example 35, 6-Hydroxy-2-oxo-N-(4-phenylbutyl)-1,3-benzoxazole-3-carboxamide] | 152 ± 87 nM |
| COc1ccc2c(c1)oc(=O)n2C(=O)NCCCCc1ccccc1 [Example 10, 6-Methoxy-2-oxo-N-(4-phenylbutyl)-1,3-benzoxazole-3-carboxamide] | 52 ± 9 nM |
| O=C(NCCCCCCc1ccccc1)n1c(=O)oc2ccccc21 [Example 58, 2-Oxo-N-(6-phenylhexyl)-1,3-benzoxazole-3-carboxamide] | 99 ± 58 nM |
| Cc1ccc2c(c1)oc(=O)n2C(=O)NCCCCc1ccccc1 [Example 9, 6-Methyl-2-oxo-N-(4-phenylbutyl)-1,3-benzoxazole-3-carboxamide] | 66 ± 9 nM |
| CCCCCCCNC(=O)n1c(=O)oc2ccccc21 [Example 59, N-Heptyl-2-oxo-1,3-benzoxazole-3-carboxamide] | 50 ± 7 nM |
| CCCCCCCCNC(=O)n1c(=O)oc2ccccc21 [Example 42, N-Octyl-2-oxo-1,3-benzoxazole-3-carboxamide] | 34 ± 14 nM |

Compounds with a lower IC50, results first:

| IC50 | Compound |
| --- | --- |
| 3 ± 2 nM | O=C(NCCCCc1ccccc1)n1c(=O)oc2ccc([N+](=O)[O-])cc21 [Example 11, 5-Nitro-2-oxo-N-(4-phenylbutyl)-1,3-benzoxazole-3-carboxamide] |
| 18 ± 11 nM | O=C(NCCCCc1ccccc1)n1c(=O)oc2c(Br)cccc21 [Example 19, 7-Bromo-2-oxo-N-(4-phenylbutyl)-1,3-benzoxazole-3-carboxamide] |
| 28 nM | Cc1ccc(CCCCNC(=O)n2c(=O)oc3ccccc32)cc1 [Example 47, 2-Oxo-N-[4-(p-tolyl)butyl]-1,3-benzoxazole-3-carboxamide] |
| 1 ± 1 nM | O=C(NCCCCc1ccccc1)n1c(=O)oc2cccc(F)c21 [Example 56, 4-Fluoro-2-oxo-N-(4-phenylbutyl)-1,3-benzoxazole-3-carboxamide] |
| 23 ± 5 nM | Cc1cccc2c1oc(=O)n2C(=O)NCCCCc1ccccc1 [Example 18, 7-Methyl-2-oxo-N-(4-phenylbutyl)-1,3-benzoxazole-3-carboxamide] |
| 29 ± 1 nM | O=C(c1ccccc1)c1ccc2c(c1)oc(=O)n2C(=O)NCCCCc1ccccc1 [Example 37, 6-Benzoyl-2-oxo-N-(4-phenylbutyl)-1,3-benzoxazole-3-carboxamide] |
| 3 ± 1 nM | O=C(NCCCCc1ccccc1)n1c(=O)oc2cc([N+](=O)[O-])ccc21 [Example 12, 6-Nitro-2-oxo-N-(4-phenylbutyl)-1,3-benzoxazole-3-carboxamide] |
| 20 ± 9 nM | O=C(NCCCCc1ccccc1)n1c(=O)oc2cc(C(F)(F)F)ccc21 [Example 14, 2-Oxo-N-(4-phenylbutyl)-6-(trifluoromethyl)-1,3-benzoxazole-3-carboxamide] |
| 11 ± 5 nM | O=C(NCCCCc1ccccc1)n1c(=O)oc2ccc(C(F)(F)F)cc21 [Example 13, 2-Oxo-N-(4-phenylbutyl)-5-(trifluoromethyl)-1,3-benzoxazole-3-carboxamide] |
| 18 ± 8 nM | O=C(NCCCCc1ccccc1)n1c(=O)oc2cc(Cl)c(Cl)cc21 [Example 16, 5,6-Dichloro-2-oxo-N-(4-phenylbutyl)-1,3-benzoxazole-3-carboxamide] |
| 9 ± 7 nM | O=C(NCCCCc1ccccc1)n1c(=O)oc2ccc(Cl)cc21 [Example 4, 5-Chloro-2-oxo-N-(4-phenylbutyl)-1,3-benzoxazole-3-carboxamide] |
| 22 nM | O=C(NCCCCc1ccccc1)n1c(=O)oc2ccc(-c3ccccc3)cc21 [Example 20, 2-Oxo-5-phenyl-N-(4-phenylbutyl)-1,3-benzoxazole-3-carboxamide] |
| 19 ± 2 nM | CCCc1ccc(CNC(=O)n2c(=O)oc3ccccc32)cc1 [Example 41, 2-Oxo-N-[(4-propylphenyl)methyl]-1,3-benzoxazole-3-carboxamide] |
| 14 ± 4 nM | O=C(c1ccc(Cl)cc1)c1ccc2c(c1)oc(=O)n2C(=O)NCCCCc1ccccc1 [Example 38, 6-(4-Chlorobenzoyl)-2-oxo-N-(4-phenylbutyl)-1,3-benzoxazole-3-carboxamide] |
| 11 nM | N#Cc1ccc2oc(=O)n(C(=O)NCCCCc3ccccc3)c2c1 [Example 15, 5-Cyano-2-oxo-N-(4-phenylbutyl)-1,3-benzoxazole-3-carboxamide] |
| 10 ± 7 nM | O=C(NCCCCc1ccccc1)n1c(=O)oc2cc(F)ccc21 [Example 3, 6-Fluoro-2-oxo-N-(4-phenylbutyl)-1,3-benzoxazole-3-carboxamide] |
| 0.8 ± 0.1 nM | O=C(NCCCCc1ccccc1)n1c(=O)oc2cccc(-c3ccccc3)c21 [Example 26, 2-Oxo-4-phenyl-N-(4-phenylbutyl)-1,3-benzoxazole-3-carboxamide] |

Source: patent US10226452B2, “Benzoxazolone derivatives as acid ceramidase inhibitors, and their use as medicaments” (FONDAZIONE ISTITUTO ITALIANO DI TECNOLOGIA, priority 2014, dated 2019)
